US11952385B1, “12-bromo-2,16-dioxa-9,9,18,18-tetramethylpentacyclo[7.7.5.0 1, 21.0 3,8.0 10,15]henicosa3(8),10,12,14-tetraene-7,20-dione as an antimicrobial compound” (KING FAISAL UNIVERSITY, priority 2023, dated 2024)

Experiments:
Assay type in all cases: cell-based
Conditions in all cases: after 10, 20, 40 and 60 minutes at all dilutions 1:100, 1:200, 1:400, and 1:800
Escherichia coli = experiment: Antimicrobial activity by agar dilution, E. Coli
Protocol: (§1) The antibacterial properties of the synthesized compound (12-bromo-2,16-dioxa-9,9,18,18-tetramethylpentacyclo[7.7.5.0^1,21.0^3,8.0^10,15]henicosa3(8),10,12,14-tetraene-7,20-dione) were studied by the method of agar dilution. Test solutions of each compound was prepared in concentration of 1% using dimethylformamide as a solvent. Then they were diluted in physiological solution to obtain the final experimental dilutions of 1:100, 1:200, 1:400, and 1:800. The effect of these substances were compared with furacillin in a controllable study. The testing microbes used were gram positive bacteria Staphylococcus aureus, gram negative bacteria Pseudomonas aeruginosa, Escherichia coli, and Candida albicans fungus. The experiments used for this survey were meat-pentonlu agar (EPA) for cultivation of bacteria and Saburo environment for fungi. Each experiment used 1 mL of test solution on each plate for 500 minutes. Two drops of emulsified with microbes feel were added. All experimental samples were taken from the agar after 10, 20, 40, 60 minutes in the environment on the basis of Patrk planted. Bacteria were cultivated at a temperature of 37° C. for 1 day and the mushroom was kept in a thermostat for 2 hours at a temperature of 28° C. Then results were checked. […]

Candida albicans = experiment: Antimicrobial (antifungal) activity by agar dilution, Candida albicans
Protocol: as §1

Pseudomonas aeruginosa = experiment: Antimicrobial activity by agar dilution, Ps. aeruginosa
Protocol: as §1

Staphylococcus aureus = experiment: Antimicrobial activity by agar dilution, St. Aereus
Protocol: as §1

Measured: inhibition activity compared with the inhibition activity of Furacilin

CC1(C)CC(=O)C2=C(C1)OC13CC(C)(C)CC(=O)C1C2c1cc(Br)ccc1O3 (stereo not shown) [12-bromo-2,16-dioxa-9,9,18,18-tetramethylpentacyclo[7.7.5.0^1,21.0^3,8.0^10,15]henicosa3(8),10,12,14-tetraene-7,20-dione]
higher inhibition activity: all assays above
